Results as given in patent EP4603105A1, “PHARMACEUTICAL COMPOSITION CONTAINING CYCLIC COMPOUND HAVING SELECTIVE KRAS INHIBITORY EFFECT AGAINST HRAS AND NRAS” (CHUGAI SEIYAKU KABUSHIKI KAISHA, priority 2022, dated 2024).
Where a SMILES comes first, the peptide text is derived from it. Bridges are numbered along the chain shown (N, C = ends). [ ]: non-standard residue; d: D form. The star is where a group is joined. hPhe(3-Cl-4-CF3) = N[C@@H](CCc1ccc(C(F)(F)F)c(Cl)c1)C(=O)O; NPrPhe(4-CF3) = CCCN[C@@H](Cc1ccc(C(F)(F)F)cc1)C(=O)O; NMeGly(cPent) = CN[C@H](C(=O)O)C1CCCC1; Pro(4,4-F2) = O=C(O)[C@@H]1CC(F)(F)CN1; NEtLeu = CCN[C@@H](CC(C)C)C(=O)O; Gly(cBu) = N[C@H](C(=O)O)C1CCC1; NMeD = CN[C@@H](CC(=O)O)C(=O)O; NMeL = CN[C@@H](CC(C)C)C(=O)O; Morpholide = C1CN(*)CCO1; Ac5c = NC1(C(=O)O)CCCC1; Sar = CNCC(=O)O

Experiments:
[1] = target: GDP-bound NRAS wild-type protein (Homo sapiens, UniProt P01111); assay: Binding to NRAS by surface plasmon resonance (SPR), KD and KD ratio to KRAS
GDP-bound NRAS wild-type protein, sequence (P01111 whole entry): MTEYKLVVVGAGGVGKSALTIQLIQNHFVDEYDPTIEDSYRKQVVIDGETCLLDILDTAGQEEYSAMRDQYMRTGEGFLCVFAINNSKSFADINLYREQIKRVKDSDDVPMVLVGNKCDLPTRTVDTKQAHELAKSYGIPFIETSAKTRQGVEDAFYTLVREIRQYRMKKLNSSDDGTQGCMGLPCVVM
Summary of the method: (§1)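 Biotinylated GDP-bound RAS was captured at about 100–300 RU. Running buffer: HBS pH 7.4, 10 mM MgCl2, 10 µM GDP, 1 mM DTT, 0.01% Tween 20, 4% DMSO.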

[2] = tested on: human lung cancer strain NCI-H441; type: cell-based
Summary of the method: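 Step one: dispense the test compound in serial DMSO dilutions. Step three: add the reagent and measure […].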

HRAS wild-type protein = HRAS wild-type protein (Homo sapiens, UniProt P01112); assay: Binding to HRAS by surface plasmon resonance (SPR), KD and KD ratio to KRAS
HRAS wild-type protein, sequence (P01112 whole entry): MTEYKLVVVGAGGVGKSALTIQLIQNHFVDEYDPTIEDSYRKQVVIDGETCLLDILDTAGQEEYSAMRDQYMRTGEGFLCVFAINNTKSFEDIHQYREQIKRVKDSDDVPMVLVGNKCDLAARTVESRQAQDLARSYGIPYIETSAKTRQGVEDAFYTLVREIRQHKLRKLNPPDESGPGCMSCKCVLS
Summary of the method: as §1

[3] = ratio of KD for GDP-bound NRAS wild-type protein to KD for KRAS
[4] = ratio of KD for HRAS wild-type protein to KD for KRAS
[5] = ratio of the KD value with respect to GDP-bound NRAS wild-type protein to the KD value with respect to KRAS
[6] = ratio of the KD value with respect to HRAS wild-type protein to the KD value with respect to KRAS
[7] = ratio of KD value for GDP-bound NRAS wild-type protein to KD value for KRAS (SPR)
[8] = ratio of KD value for HRAS wild-type protein to KD value for KRAS (SPR)

IC50 [2] [nM]	Structure (SMILES)	NRAS /KRAS [1, 3]	HRAS /KRAS (HRAS wild-type protein; [4])	NRAS /KRAS [1, 5]	HRAS /KRAS (HRAS wild-type protein; [6])	other results
6.7	CCCN1C(=O)CN(C)C(=O)CN(C)C(=O)[C@H](C2CCC2)NC(=O)[C@H](CC(C)C)N(C)C(=O)C[C@@H](C(=O)N2CCOCC2)N(C)C(=O)[C@H](C2CCCC2)N(C)C(=O)C2(CCCC2)NC(=O)[C@@H]2CCCN2C(=O)[C@H](CCc2ccc(C(F)(F)F)c(Cl)c2)NC(=O)CN(C)C(=O)[C@@H]1Cc1ccc(C(F)(F)F)cc1 [PP0250] ([NMeL][Gly(cBu)][Sar][Sar][NPrPhe(4-CF3)][Sar][hPhe(3-Cl-4-CF3)]P[Ac5c][NMeGly(cPent)][NMeD]-Morpholide; lactam N-11)	B (a compound having 3 or more and less than 10 is denoted as B)	C (A compound having a KD ratio of 0.1 or more and less than 3 is denoted as C)	–	–	–
91.4	CCCN1C(=O)CN(C)C(=O)CNC(=O)[C@H]([C@@H](C)CC)NC(=O)[C@H](CC(C)C)N(C)C(=O)C[C@@H](C(=O)N(C)C)NC(=O)[C@H](C2CCCC2)N(C)C(=O)C2(CCCC2)NC(=O)[C@@H]2CC(F)(F)CN2C(=O)[C@H](CCc2ccc(C(F)(F)F)c(Cl)c2)NC(=O)CN(C)C(=O)[C@@H]1Cc1ccc(C(F)(F)F)cc1 [PP0363] ([NMeL]IG[Sar][NPrPhe(4-CF3)][Sar][hPhe(3-Cl-4-CF3)][Pro(4,4-F2)][Ac5c][NMeGly(cPent)]D-NMe2; lactam N-11)	B (a compound having 3 or more and less than 10 is denoted as B)	C (A compound having a KD ratio of 0.1 or more and less than 3 is denoted as C)	–	–	–
6.3	CCO[C@@H]1C[C@H]2C(=O)NC3(CC(C)(C)C3)C(=O)N(C)[C@@H](C3CCCC3)C(=O)N(C)[C@H](C(=O)N(C)CC)CC(=O)N(C)[C@@H](CC(C)C)C(=O)N[C@@H]([C@@H](C)OCC)C(=O)N(C)CC(=O)N(C)[C@H]3C/C=C\CCN(C3=O)[C@@H](Cc3ccc(C(F)(F)F)cc3)C(=O)N(C)CC(=O)N[C@@H](CCc3cc(F)c(C(F)(F)F)c(F)c3)C(=O)N2C1 [PP1919]	–	–	A (a compound having 10 or more and less than 20 is denoted as A)	A (a compound having 10 or more and less than 20 is denoted as A)	–
6.1	CCO[C@@H]1C[C@H]2C(=O)NC3(CC(C)(C)C3)C(=O)N(C)[C@@H](C3CCCC3)C(=O)N(C)[C@H](C(=O)N(C)C)CC(=O)N(C)[C@@H](CC)C(=O)N[C@@H]([C@@H](C)CC)C(=O)N(C)CC(=O)N(C)[C@H]3C/C=C\CCN(C3=O)[C@@H](Cc3ccc(C(F)F)cc3)C(=O)N(C)CC(=O)N[C@@H](CCc3cc(F)c(C(F)(F)F)c(F)c3)C(=O)N2C1 [PP2049]	–	–	A (a compound having 10 or more and less than 20 is denoted as A)	B (a compound having 3 or more and less than 10 is denoted as B)	–
736	CCO[C@@H]1C[C@H]2C(=O)NC3(CCC3)C(=O)N(C)[C@@H](C3CCCC3)C(=O)N(C)[C@H](C(=O)N3CCOCC3)CC(=O)N(C)[C@@H](CC)C(=O)N[C@@H]([C@@H](C)CC)C(=O)N(C)CC(=O)N(C)[C@H]3CC/C=C(/C)CN(C3=O)[C@@H](Cc3ccc(C(F)(F)F)cc3)C(=O)N(C)CC(=O)N[C@@H](CCc3cc(F)c(C(F)(F)F)c(F)c3)C(=O)N2C1 [PP1335]	–	–	–	–	NRAS /KRAS ([1]; ratio of KD with respect to GDP-bound NRAS wild-type protein to KD with respect to KRAS): B (a compound having 3 or more and less than 10 is denoted as B); HRAS /KRAS (HRAS wild-type protein; ratio of KD with respect to HRAS wild-type protein to KD with respect to KRAS): B (a compound having 3 or more and less than 10 is denoted as B)
81.6	CCC(CC)[C@H]1C(=O)N(C)[C@H](C(=O)N(C)C)CC(=O)N(C)[C@@H](COC)C(=O)N[C@@H]([C@@H](C)CC)C(=O)N(C)CC(=O)N(C)[C@H]2C/C=C\CCN(C2=O)[C@@H](Cc2ccc(C(F)(F)F)cc2)C(=O)N(C)CC(=O)N[C@@H](CCc2ccc(Cl)c(Cl)c2)C(=O)N2CCCCC[C@H]2C(=O)NC2(CC(C)(C)C2)C(=O)N1C [PP2972]	AA (a compound having 20 or more is denoted as AA)	A (a compound having 10 or more and less than 20 is denoted as A)	–	–	–
3.3	CCO[C@@H]1C[C@H]2C(=O)NC3(CC(C)(C)C3)C(=O)N(C)[C@@H](C3CCCC3)C(=O)N(C)[C@H](C(=O)N(C)C)CC(=O)N(C)[C@@H](CC3CC3)C(=O)N[C@@H]([C@@H](C)CC)C(=O)N(C)CC(=O)N(C)[C@H]3C/C=C\CCN(C3=O)[C@@H](Cc3ccc(C(F)(F)F)cc3)C(=O)N(C)CC(=O)N[C@@H](CCc3ccc(C(F)(F)F)c(Cl)c3)C(=O)N2C1 [PP1749]	–	–	–	–	NRAS /KRAS [1, 7]: A (a compound having 10 or more and less than 20 is denoted as A); HRAS /KRAS (HRAS wild-type protein; [8]): A (a compound having 10 or more and less than 20 is denoted as A)
16.7	CCO[C@@H]1C[C@H]2C(=O)NC3(CC(C)(C)C3)C(=O)N(C)[C@@H](C3CCCC3)C(=O)N(C)[C@H](C(=O)N(CC)CC)CC(=O)N(C)[C@@H](CC)C(=O)N[C@@H]([C@@H](C)CC)C(=O)N(C)CC(=O)N(C)[C@H]3C/C=C\CCN(C3=O)[C@@H](Cc3ccc(C)cc3)C(=O)N(C)CC(=O)N[C@@H](CCc3ccc(C(F)(F)F)c(OC)c3)C(=O)N2C1 [PP1881]	–	–	–	–	NRAS /KRAS [1, 7]: A (a compound having 10 or more and less than 20 is denoted as A); HRAS /KRAS (HRAS wild-type protein; [8]): A (a compound having 10 or more and less than 20 is denoted as A)
10.8	CCCN(C)C(=O)[C@@H]1CC(=O)N(C)[C@@H](COCC)C(=O)N[C@@H]([C@@H](C)CC)C(=O)N(C)CC(=O)N(C)[C@H]2C/C=C\CCN(C2=O)[C@@H](Cc2ccc(C(F)(F)F)cc2)C(=O)N(C)CC(=O)N[C@@H](CCc2ccc(C(F)(F)F)c(OC)c2)C(=O)N2C[C@@H](C)C[C@H]2C(=O)NC2(CC(C)(C)C2)C(=O)N(C)[C@@H](C2CCCC2)C(=O)N1C [PP1991]	–	–	A (a compound having 10 or more and less than 20 is denoted as A)	A (a compound having 10 or more and less than 20 is denoted as A)	–
7.7	CCCN(C)C(=O)[C@@H]1CC(=O)N(C)[C@@H](COCC)C(=O)N[C@@H]([C@@H](C)CC)C(=O)N(C)CC(=O)N(C)[C@H]2C/C=C\CCN(C2=O)[C@@H](Cc2ccc(C(F)(F)F)cc2)C(=O)N(C)CC(=O)N[C@@H](CCc2cc(F)c(C(F)(F)F)c(F)c2)C(=O)N2C[C@@H](C)C[C@H]2C(=O)NC2(CC(C)(C)C2)C(=O)N(C)[C@@H](C2CCCC2)C(=O)N1C [PP2041]	–	–	A (a compound having 10 or more and less than 20 is denoted as A)	A (a compound having 10 or more and less than 20 is denoted as A)	–
10.9	CCCN1C(=O)CN(C)C(=O)CNC(=O)[C@H]([C@@H](C)CC)NC(=O)[C@H](CC(C)C)N(CC)C(=O)C[C@@H](C(=O)N2CCOCC2)N(C)C(=O)[C@H](C2CCCC2)N(C)C(=O)C2(CCCC2)NC(=O)[C@@H]2CCCN2C(=O)[C@H](CCc2ccc(C(F)(F)F)c(Cl)c2)NC(=O)CN(C)C(=O)[C@@H]1Cc1ccc(C(F)(F)F)cc1 [PP1967] ([NEtLeu]IG[Sar][NPrPhe(4-CF3)][Sar][hPhe(3-Cl-4-CF3)]P[Ac5c][NMeGly(cPent)][NMeD]-Morpholide; lactam N-11)	–	–	B (a compound having 3 or more and less than 10 is denoted as B)	B (a compound having 3 or more and less than 10 is denoted as B)	–

Structure (SMILES)	IC50 [2] [nM]	NRAS /KRAS [1, 3]	HRAS /KRAS (HRAS wild-type protein; [4])	NRAS /KRAS [1, 5]	HRAS /KRAS (HRAS wild-type protein; [6])	other results
CCO[C@@H]1C[C@H]2C(=O)NC3(CC(C)(C)C3)C(=O)N(C)[C@@H](C(CC)CC)C(=O)N(C)[C@H](C(=O)N3CCCCC3)CC(=O)N(C)[C@H]3CCC/C=C/c4ccc(cc4)C[C@@H](C(=O)N(C)CC(=O)N[C@@H](CCc4cc(F)c(C(F)(F)F)c(F)c4)C(=O)N2C1)N1CC/C=C\C[C@@H](C1=O)N(C)C(=O)CN(C)C(=O)[C@H]([C@@H](C)CC)NC3=O [PP2952]	45	AA (a compound having 20 or more is denoted as AA)	A (a compound having 10 or more and less than 20 is denoted as A)	–	–	–
